We go through 12 molecules from ChEMBL document CHEMBL1201862, “PubChem BioAssay data set” (2004).

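The compound was tested at five concentrations on cells cultured in 96-well plates, with a 48-hour exposure period. GI50 = concentration required for 50% inhibition of growth.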 Activity calls are given as the source filed them. Cut-off read from the data, not from the text of the source: active = GI50 up to about 1.1 µM and inactive = higher.

Holding throughout (experiment): DTP human tumour cell line panel, 48 h
Assay [1] relates to RXF 393.
For assay [2], the system named is OVCAR-8.
The test system of assay [3] is LOX IMVI.
Assay [4] deals with SNB-75.
Assay [5] concerns MOLT-4.
Assay [6] concerns SF-539.
Assay [7] concerns ACHN.
Assay [8] deals with UACC-257.
The subject of assay [9] is SK-MEL-2.
The subject of assay [10] is HT-29.
Assay [11] deals with UACC-62.
Assay [12] deals with KM12.
The test system of assay [13] is HCT-15.
Assay [14] deals with A498.
Assay [15] has as its system COLO 205.
For assay [16], the system named is K562.
Assay [17] concerns SF-295.
Assay [18] relates to NCI-H23.
The test system of assay [19] is DU-145.

As a reminder, the GI50 is the concentration that inhibits growth by half. As for `CCNc1c(C(=O)N(CC)CC)c(=O)[nH]c2ncccc12`, the GI50 in assay [1], in assay [2], in [3], in [4], in [5] and in [6] was > 100 µM (inactive) each time. In addition, the GI50 in assay [7], in assay [8], in assay [9], in [10], in [11] and in assay [12] was > 100 µM (inactive) each time. The GI50 is over 100 µM in assay [13]; > 100 µM (inactive) in assay [14]; > 100 µM (inactive) in assay [15]; > 100 µM (inactive) in assay [16]; > 100 µM (inactive) in [17]; > 100 µM (inactive) in assay [18].
On to `O=c1c2cc(Cl)ccc2sc2cccc(Cl)c12`, for which the GI50 in assay [1], in assay [2], in assay [3], in assay [5], in assay [6] and in assay [7] was > 100 µM (inactive) in each case. The GI50 is > 100 µM (inactive) in assay [8]; > 100 µM (inactive) in assay [9]; > 100 µM (inactive) in [10]; > 100 µM (inactive) in assay [11]; > 100 µM (inactive) in assay [12]; over 100 µM in assay [13]. The GI50 in [14], in [15], in assay [16], in [17] and in assay [18] was > 100 µM (inactive) each time.
For the molecule `COC(=O)CC(C(C(=O)OC)C(=O)OC)N1C(=O)OCC1c1ccccc1` (stereo not drawn), the GI50 in assay [1], in [2], in [3], in [4], in assay [5] and in assay [6] was > 100 µM (inactive) each time. The GI50 in [7], in assay [8], in assay [9], in assay [10], in [11] and in assay [12] was > 100 µM (inactive) in each case. The GI50 in [13] was over 100 µM; in assay [14] it was > 100 µM (inactive); in assay [15], > 100 µM (inactive); in [16], > 100 µM (inactive); in [17], > 100 µM (inactive); in assay [18], > 100 µM (inactive).
Take `Cn1ncc2c(Cl)ncnc21`: the GI50 in assay [1], in assay [2], in assay [3], in [19], in assay [4] and in assay [5] was > 100 µM (inactive) throughout. The GI50 in assay [6], in [7], in assay [8], in assay [9], in [10] and in [11] was > 100 µM (inactive) throughout. Besides, the GI50 in [12] is > 100 µM (inactive); in assay [13], over 100 µM; in assay [14] it was > 100 µM (inactive); in assay [15] it was > 100 µM (inactive); in [16] it was > 100 µM (inactive); in assay [17] it was > 100 µM (inactive). Moreover, in [18], the GI50 was > 100 µM (inactive).
Consider `COc1cc(C2SCC(=O)N2NC(=O)c2ccc(NC(C)=O)cc2OC)ccc1O` (stereo not drawn), for which the GI50 was 39.3 µM (inactive) in [1]; 25.2 µM (inactive) in assay [2]; > 100 µM (inactive) in assay [3]; 21 µM (inactive) in assay [19]; 23.7 µM (inactive) in assay [4]; > 100 µM (inactive) in assay [5]. Also, the GI50 in assay [6] is 0.729 µM (active); in assay [7], 63 µM (inactive); in assay [9] it was 22.2 µM (inactive); in assay [10], > 100 µM (inactive); in assay [11], > 100 µM (inactive); in [13] it was over 100 µM. Besides, the GI50 was 7.59 µM (inactive) in assay [14]; > 100 µM (inactive) in assay [15]; > 100 µM (inactive) in assay [16]; 20.5 µM (inactive) in assay [17]; 92.9 µM (inactive) in [18].
On to `O=c1nc(NC2CCCCO2)ccn1CCO` (stereo not drawn), for which the GI50 in assay [1], in assay [2], in assay [3], in assay [4], in assay [6] and in assay [7] was > 100 µM (inactive) throughout. Further, the GI50 in assay [8] was > 100 µM (inactive); in assay [9] it was > 100 µM (inactive); in assay [10], > 100 µM (inactive); in assay [11], > 100 µM (inactive); in [12], > 100 µM (inactive); in [13] it was over 100 µM. Also, the GI50 in assay [14], in [15], in assay [16] and in [17] was > 100 µM (inactive) throughout.
`COc1ccc(NC(=O)C(=O)c2c(O)c3ccc(O)cc3oc2=O)c([N+](=O)[O-])c1`: the GI50 in assay [1], in assay [3], in assay [4], in assay [5], in [6] and in assay [7] was > 100 µM (inactive) each time. The GI50 in assay [8] is > 100 µM (inactive); in assay [9] it was > 100 µM (inactive); in assay [10], > 100 µM (inactive); in [11] it was > 100 µM (inactive); in assay [12] it was > 100 µM (inactive); in [13], over 100 µM. The GI50 in assay [14], in assay [15], in assay [16], in assay [17] and in [18] was > 100 µM (inactive) each time.
`COc1ccccc1CNC1=Nc2ccncc2S(=O)(=O)N1c1ccccc1`: the GI50 is 2.47 µM (inactive) in assay [1]; 84.7 µM (inactive) in assay [2]; > 100 µM (inactive) in assay [3]; 97.5 µM (inactive) in assay [19]; 69 µM (inactive) in assay [5]; > 100 µM (inactive) in assay [7]. Also, the GI50 is 82.8 µM (inactive) in assay [8]; > 100 µM (inactive) in assay [10]; 35.9 µM (inactive) in assay [11]; 56.6 µM (inactive) in assay [12]; 49.7 µM in assay [13]; 45.8 µM (inactive) in [14]. The GI50 in assay [15] was 63.4 µM (inactive); in assay [16], 71 µM (inactive); in [17] it was 41.1 µM (inactive); in assay [18], 85.1 µM (inactive).
On to `N#Cc1ccccc1NC(=O)/C(=N\Nc1ccc([N+](=O)[O-])cc1)C1C(=O)NC(=O)NC1=O`, for which the GI50 in [1], in [2], in assay [3], in assay [4], in assay [5] and in [6] was > 100 µM (inactive) throughout. The GI50 in assay [7] was > 100 µM (inactive); in assay [8], > 100 µM (inactive); in assay [9], > 100 µM (inactive); in assay [11], > 100 µM (inactive); in assay [12] it was > 100 µM (inactive); in assay [13], over 100 µM. Moreover, the GI50 in assay [14], in assay [15], in assay [16] and in assay [18] was > 100 µM (inactive) each time.
With `Cc1cc2c(cc1C)[n+]([O-])c(C(=O)CC(=O)C(=O)Nc1ccccc1C(C)C)c(C)[n+]2[O-]`, the GI50 in [1], in assay [2], in assay [3], in assay [4], in assay [5] and in [6] was > 100 µM (inactive) throughout. For the same molecule, the GI50 is > 100 µM (inactive) in assay [7]; 1.08 µM (active) in assay [8]; > 100 µM (inactive) in assay [9]; > 100 µM (inactive) in [10]; > 100 µM (inactive) in assay [11]; > 100 µM (inactive) in assay [12]. Besides, the GI50 in assay [13] is over 100 µM; in assay [14] it was > 100 µM (inactive); in [15], > 100 µM (inactive); in assay [16], > 100 µM (inactive); in [17], > 100 µM (inactive); in [18], > 100 µM (inactive).
With `O=C(N/C=C1\C(=O)Oc2ccccc2C1=O)Nc1ccccc1`, the GI50 in assay [1] was 16.7 µM (inactive); in assay [2], 44.1 µM (inactive); in assay [3], 42.4 µM (inactive); in assay [4], 12.8 µM (inactive); in assay [5], > 100 µM (inactive); in [6], 43.8 µM (inactive). For the same molecule, the GI50 in [7] is 27.7 µM (inactive); in assay [8], 91.2 µM (inactive); in assay [9], 18.5 µM (inactive); in [10], > 100 µM (inactive); in assay [11], 38.5 µM (inactive); in assay [12], 64 µM (inactive). For the same molecule, the GI50 in assay [13] was 40.3 µM; in assay [14], 35.3 µM (inactive); in assay [15], > 100 µM (inactive); in assay [16], > 100 µM (inactive); in assay [17] it was > 100 µM (inactive); in assay [18] it was 88.7 µM (inactive).
Take `CC1(C(=O)Nc2ccc3cc4ccccc4cc3c2)CC2(C)CC(C)(C1)C(O)NC2=O` (stereo not drawn): the GI50 in assay [1] was > 100 µM (inactive); in [2] it was > 100 µM (inactive); in [3], 62.4 µM (inactive); in assay [4], > 100 µM (inactive); in assay [5] it was 20.6 µM (inactive); in assay [6], > 100 µM (inactive). The GI50 in assay [7] was 36.7 µM (inactive); in assay [8], > 100 µM (inactive); in assay [9] it was > 100 µM (inactive); in assay [10], 92.5 µM (inactive); in [11], > 100 µM (inactive); in assay [12], > 100 µM (inactive). Moreover, the GI50 in assay [13] is over 100 µM; in assay [14], > 100 µM (inactive); in [15] it was 41.6 µM (inactive); in assay [16], 73.1 µM (inactive); in [17] it was 66.5 µM (inactive); in assay [18], > 100 µM (inactive).
